Tests used:
[1] = system: SEM cells; assay: cell viability relative to DMSO control; higher = less cytotoxic; conditions: 48 h
How it was run: (§1)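 Three leukemia lines were tested: NOMO1 and SEM at 500 cells/well and P12-Ichikawa at 1000 cells/well. Each was adapted for at least four passages in each medium and seeded in 5 μl in 1536-well plates, and library compounds in DMSO were pin-dosed from 47 μM to 0.79 nM in 11 threefold steps. After 48 h at 37°C, CellTiter-Glo One luminescence was read. Viability is a percentage relative to DMSO wells on each plate, with cell-free wells as background.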

[2] = system: NOMO1; assay: AUC of viability dose-response curve (% viability x log10 dose units); higher = less sensitive; conditions: 48 h
How it was run: (§2)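 Leukemia cells adapted to each medium were seeded at 500 or 1000 cells/well in 1536-well plates and dosed with library compounds in DMSO at 11 threefold doses from 47 μM to 0.79 nM for 48 h at 37°C. CellTiter-Glo One luminescence was normalised per plate to DMSO and cell-free wells, then fitted with a four-parameter log-logistic model over log10 doses. Area under the curve was taken from this fit by the trapezoidal rule, with curves above full viability scaled and curves failing quality control removed.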

[3] = system: P12-Ichikawa; assay: as above; conditions: 48 h
How it was run: as §2

[4] = system: SEM cells; assay: as above; conditions: 48 h
How it was run: as §2

[5] = system: NOMO1; assay: cell viability relative to DMSO control; higher = less cytotoxic; conditions: 48 h
How it was run: as §1

[6] = system: P12-Ichikawa; assay: as above; conditions: HPLM + 10% dialyzed FBS, 48 h
How it was run: as §1

NC/1=N/[C@]2(COC[C@H]2CS1)C3=CC(=CC=C3F)NC(=O)C4=NC=C(F)C=C4
cell viability [%], [1]
Conditions | HPLM + 10% dialyzed FBS | RPMI 5 mM glucose + 10% FBS
0.000781 µM | 90.8 | 119
0.00234 µM | 111 | 120
0.00702 µM | 131 | 129
0.0211 µM | 127 | 135
0.0632 µM | 132 | 138
0.19 µM | 140 | 149
0.569 µM | 130 | 127
1.71 µM | 135 | 141
5.12 µM | 136 | 155
15.4 µM | 147 | 29
46.1 µM | 110 | 7.7

AUC of viability dose-response curve
Conditions | [2] | [3] | [4]
HPLM + 10% dialyzed FBS | 324 | 350 | 461
RPMI 5 mM glucose + 10% FBS | 302 | 348 | 417
RPMI 5 mM glucose + 10% dialyzed FBS | 313 | 374 | 471

Cc1c(C(=O)NN2CCCCC2)nn(-c2ccc(Cl)cc2Cl)c1-c1ccc(Cl)cc1
cell viability [%]
Conditions | HPLM + 10% dialyzed FBS | RPMI 5 mM glucose + 10% FBS | RPMI 5 mM glucose + 10% dialyzed FBS
[1], 0.000781 µM | 103 | 103 | 107
[1], 0.00234 µM | 125 | 112 | 120
[1], 0.00702 µM | 113 | 118 | 137
[1], 0.0211 µM | 114 | 118 | 116
[1], 0.0632 µM | 128 | 118 | 128
[1], 0.19 µM | 129 | 127 | 149
[1], 0.569 µM | 122 | 127 | 139
[1], 1.71 µM | 124 | 135 | 144
[1], 5.12 µM | 131 | 130 | 119
[1], 15.4 µM | 127 | 129 | 133
[1], 46.1 µM | 93 | 99.5 | 104
[5], 0.000781 µM | – | – | 122
[5], 0.00234 µM | – | – | 120
[5], 0.00702 µM | – | – | 125
[5], 0.0211 µM | – | – | 143
[5], 0.0632 µM | – | – | 128
[5], 0.19 µM | – | – | 138
[5], 0.569 µM | – | – | 76.3
[5], 1.71 µM | – | – | 46.8
[5], 5.12 µM | – | – | 32.8
[5], 15.4 µM | – | – | 28.1
[5], 46.1 µM | – | – | 36

AUC of viability dose-response curve
Conditions | HPLM + 10% dialyzed FBS | RPMI 5 mM glucose + 10% FBS | RPMI 5 mM glucose + 10% dialyzed FBS
[2] | 325 | 303 | 337
[4] | 473 | 455 | 469

CO[C@@H]1COCC[C@@H]1N[C@@H]1CC[C@@](C(=O)N2CCc3ncc(C(F)(F)F)cc3C2)(C(C)C)C1
cell viability [%], HPLM + 10% dialyzed FBS
Conditions | [1] | [5]
0.000781 µM | 97.1 | 107
0.00234 µM | 107 | 133
0.00702 µM | 110 | 121
0.0211 µM | 112 | 142
0.0632 µM | 111 | 157
0.19 µM | 113 | 141
0.569 µM | 114 | 132
1.71 µM | 102 | 127
5.12 µM | 119 | 143
15.4 µM | 103 | 151
46.1 µM | 68.1 | 96.6

Conditions | AUC of viability dose-response curve | cell viability [%]
[2], HPLM + 10% dialyzed FBS | 472 | –
[2], RPMI 5 mM glucose + 10% FBS | 466 | –
[2], RPMI 5 mM glucose + 10% dialyzed FBS | 472 | –
[4], HPLM + 10% dialyzed FBS | 466 | –
[4], RPMI 5 mM glucose + 10% FBS | 458 | –
[4], RPMI 5 mM glucose + 10% dialyzed FBS | 467 | –
[6], 0.000781 µM | – | 98
[6], 0.00234 µM | – | 109
[6], 0.00702 µM | – | 123
[6], 0.0211 µM | – | 119
[6], 0.0632 µM | – | 113
[6], 0.19 µM | – | 119
[6], 0.569 µM | – | 118
[6], 1.71 µM | – | 126
[6], 5.12 µM | – | 127
[6], 15.4 µM | – | 123
[6], 46.1 µM | – | 47.4

Nc1nc(Cl)nc2c1ncn2[C@H]1C[C@H](O)[C@@H](CO)O1
[1], HPLM + 10% dialyzed FBS
Conditions | cell viability [%]
0.000781 µM | 114
0.00234 µM | 119
0.00702 µM | 115
0.0211 µM | 133
0.0632 µM | 115
0.19 µM | 15.7
0.569 µM | 13.9
1.71 µM | 12.7
5.12 µM | 11.6
15.4 µM | 9.89
46.1 µM | 5.05

AUC of viability dose-response curve
Conditions | [2] | [3] | [4]
HPLM + 10% dialyzed FBS | 256 | 263 | 238
RPMI 5 mM glucose + 10% FBS | 270 | 254 | 226
RPMI 5 mM glucose + 10% dialyzed FBS | 257 | 272 | 212

CCN1CCC(n2cc(CNc3cc(Cl)c4ncc(C#N)c(Nc5ccc(F)c(Cl)c5)c4c3)nn2)CC1
AUC of viability dose-response curve
Conditions | [2] | [3] | [4]
HPLM + 10% dialyzed FBS | 433 | 377 | 433
RPMI 5 mM glucose + 10% FBS | 445 | 432 | 367
RPMI 5 mM glucose + 10% dialyzed FBS | 447 | 426 | 400

CC(=O)N[C@H]1[C@H](O[C@@H]2c3ccc(c(Cl)c3)Oc3cc4cc(c3O[C@@H]3O[C@H](CO)[C@@H](O)[C@H](O)[C@H]3NC(=O)CCCCCCCC(C)C)Oc3ccc(cc3Cl)C[C@H]3NC(=O)[C@H](N)c5ccc(O)c(c5)Oc5cc(O)cc(c5)[C@H](NC3=O)C(=O)N[C@H]4C(=O)N[C@H]3C(=O)N[C@@H]2C(=O)N[C@@H](C(=O)O)c2cc(O)cc(O[C@H]4O[C@H](CO)[C@@H](O)[C@H](O)[C@@H]4O)c2-c2cc3ccc2O)O[C@H](CO)[C@@H](O)[C@@H]1O
Conditions | cell viability [%]
[1], HPLM + 10% dialyzed FBS, 0.000781 µM | 96.3
[1], HPLM + 10% dialyzed FBS, 0.00234 µM | 106
[1], HPLM + 10% dialyzed FBS, 0.00702 µM | 106
[1], HPLM + 10% dialyzed FBS, 0.0211 µM | 123
[1], HPLM + 10% dialyzed FBS, 0.0632 µM | 127
[1], HPLM + 10% dialyzed FBS, 0.19 µM | 121
[1], HPLM + 10% dialyzed FBS, 0.569 µM | 127
[1], HPLM + 10% dialyzed FBS, 1.71 µM | 140
[1], HPLM + 10% dialyzed FBS, 5.12 µM | 117
[1], HPLM + 10% dialyzed FBS, 15.4 µM | 98.6
[1], HPLM + 10% dialyzed FBS, 46.1 µM | 126
[5], RPMI 5 mM glucose + 10% dialyzed FBS, 0.000781 µM | 123
[5], RPMI 5 mM glucose + 10% dialyzed FBS, 0.00234 µM | 131
[5], RPMI 5 mM glucose + 10% dialyzed FBS, 0.00702 µM | 123
[5], RPMI 5 mM glucose + 10% dialyzed FBS, 0.0211 µM | 144
[5], RPMI 5 mM glucose + 10% dialyzed FBS, 0.0632 µM | 146
[5], RPMI 5 mM glucose + 10% dialyzed FBS, 0.19 µM | 151
[5], RPMI 5 mM glucose + 10% dialyzed FBS, 0.569 µM | 149
[5], RPMI 5 mM glucose + 10% dialyzed FBS, 1.71 µM | 162
[5], RPMI 5 mM glucose + 10% dialyzed FBS, 5.12 µM | 157
[5], RPMI 5 mM glucose + 10% dialyzed FBS, 15.4 µM | 157
[5], RPMI 5 mM glucose + 10% dialyzed FBS, 46.1 µM | 151

AUC of viability dose-response curve
Conditions | [2] | [3] | [4]
HPLM + 10% dialyzed FBS | 469 | 463 | 456
RPMI 5 mM glucose + 10% FBS | 470 | 466 | 464
RPMI 5 mM glucose + 10% dialyzed FBS | 448 | 468 | 471

Fc1ccc([C@@H]2CCNC[C@H]2COc2ccc3c(c2)OCO3)cc1
[1], HPLM + 10% dialyzed FBS
Conditions | cell viability [%]
0.000781 µM | 119
0.00234 µM | 124
0.00702 µM | 130
0.0211 µM | 141
0.0632 µM | 122
0.19 µM | 123
0.569 µM | 125
1.71 µM | 109
5.12 µM | 103
15.4 µM | 58.9
46.1 µM | 24.7

AUC of viability dose-response curve
Conditions | [2] | [3] | [4]
HPLM + 10% dialyzed FBS | 447 | 396 | 417
RPMI 5 mM glucose + 10% FBS | 463 | 337 | 407
RPMI 5 mM glucose + 10% dialyzed FBS | 455 | 393 | 416

Source: the supplement of paper PMC11451515
